In data set [1] the test system is cortical neurons derived from human induced pluripotent stem cells (iPSCs) from Huntington's disease patients. Description: BDNF-mCherry axonal trafficking in hiPSC-derived cortical neurons in microfluidic device. It is filed as cell-based. As to conditions: 1 μM daily for 7 days vs DMSO. As to the method:
Referring to FIG. 7A, the inventors again reproduced the corticostriatal network in vitro on a microfluidic device consisting of two neuronal chambers that are connected via microchannels. Experiments are performed over a period ranging from 0 to 40 days in vitro (DIV), the first 20 days for neuronal cell generation and differentiation of hiPSCs, followed by the introduction of the cells into the microfluidic device. 3 hours after introduction, cells were infected from the pre-synaptic compartment with a lentivirus encoding BDNF-mCHerry.
The human iPSC line ND42222 (RRID:CVCL_Y844 passage 42) “109Q” was obtained from Coriell Cell Repositories. This line is heterozygous for HTT p.Gln18[109] and therefore has 109 CAG repeats in one of the two HTT alleles. Amplification of human iPSCs, generation of neuronal cells and terminal differentiation were performed according to the work published in Gribaudo S. et al. (Stem Cell Reports 12, 230-244, 2019). 109Q cells were maintained on Vitronectin-coated plates (Life Technology) in mTeSRplus medium ([…] Technologies). Cultures were fed every other day and passaged by manual dissociation using 0.02% EDTA pH 7.2 (Merck Sigma-Aldrich) every 4-5 days. For neuronal differentiation, hiPSC colonies were treated (DIV0) as previously described (Nicoleau et al., 2013) in N2B27 medium consisting of 50% DMEMF-12 Glutamax, 50% neurobasal medium, 2% B27 supplement 50× without vitamin A, 1% N2 supplement, 0.1% penicillin streptomycin, and 50 μM β-mercaptoethanol (Thermofisher). Neuronal differentiation was initiated by passage of hiPSCs in N2B27 medium supplemented with SB431542 (20 μM, Tocris), LDN-193189 (100 nM, Sigma Aldrich) and XAV_939 (1 μM, Tocris) and 10 μM ROCK inhibitor (Y27632, Calbiochem) on low-adhesion culture plates (Greiner) for 6 hours. The medium was changed every day from DIV0 to DIV20. At DIV1, hiPSC aggregates were transferred to laminin poly-ornitine-coated dishes without Y27632. From DIV5 to DIV9, SB431542 was removed and FGF2 (10 ng/ml) and cyclopamine 1 μM (Merck) were added. […]

In data set [2] the test system is WT and Hdh^CAG/+ corticostriatal network. As to the kind of experiment: Synapse density (adjacent SYP and PSD95 spots) in microfluidic corticostriatal network. It is filed as cell-based, mouse. Particulars: 1 μM daily. As to the method:
In FIG. 3H, we can see the recording area that was chosen for the assessment of synapse density by quantifying the number of synaptophysin (SYP) spots, a presynaptic marker, and the number of PSD95 spots, a postsynaptic marker. FIG. 3I testifies that in the Hdh^CAG/+ microfluidic network, the number of synapses is decreased in the microfluidic devices.
For striatal StHdh cells, acute treatment was performed at 10 μM for 1 hour before and during the acquisition time. For neurons within the microchambers, treatments were started at DIV2 until DIV12 every day at 1 μM in each compartment of the microfluidic device.
The inventors then assessed synapse density by quantifying the number of synaptophysin spots (presynaptic marker, SYP) adjacent to PSD95 spots (postsynaptic marker) within synaptic chamber of the microfluidic device using high-resolution Airyscan confocal microscopy (FIG. 3H). In Hdh^CAG/+ network, the number of synapses is decreased in the microfluidic devices (FIG. 3I). […] However, this was not significant.

Data set [3] deals with melanoma cells. Particulars: studies of Vujic et al., 2015; cited from earlier work.
The nature of data set [4]: Pharmacokinetics after intraperitoneal injection, plasma and brain by LC-MS/MS. It is filed as in vivo. Particulars: mice, 2 mg/kg intraperitoneal. On the procedure:
The ability of the ML-348 molecule to freely cross the blood brain barrier is an additional argument towards the efficacy of the molecule in vivo in mice.
Plasma proteins were precipitated by adding 800 μL acetonitrile into 400 μL of sample. Brains were ground into 400 μL H2O before adding 800 μL acetonitrile. Samples were centrifuged to remove insoluble residues at 15.000 g for 5 minutes at 16° C. Supernatants were analyzed by LC-MS/MS. LC-MS/MS was assessed by high-performance liquid chromatography (UHPC) coupled with a triple quadrupole (Shimadzu LC-MS 8030). Analyses were performed from 3 mice for each time point.
Before investigating ML-348 in vivo, the inventors first evaluated the pharmacokinetics of the molecule. […] They then evaluated the efficacy of the molecule to increase brain palmitoylation level 30 minutes after injection. For this purpose, they performed an Acyl-Biotin-Exchange (ABE) assay to biotinylate palmitoylated proteins before their immunoprecipitation with streptavidin-coated beads (FIG. 4D).

Each structure is given as a SMILES string.

On to `O=C(CN1CCN(C(=O)c2ccco2)CC1)Nc1cc(C(F)(F)F)ccc1Cl` [ML-348], for which, in data set [1], the “anterograde and retrograde transport velocities of BDNF-mCherry vesicles” value is recorded as “not statistically significant”; the linear net flow result is “significantly increased”; the “number of vesicles moving in either direction (anterograde, retrograde)” value is listed as “significantly increased”. Further, in data set [2] (Hdh^CAG/+ network), the “number of synapses (adjacent SYP and PSD95 spots)” value is listed as “restored the number of synapses”. Further, the “number of synapses (adjacent SYP and PSD95 spots)” value in data set [2] (wild-type network, not statistically significant) is listed as “slightly reduced synapse connectivity”. Also, in data set [3], the “effect on melanoma cells” value is “no biologically significant effect”. In data set [4] (30, 60 and 180 minutes), the “crossing of the blood brain barrier ([Brain]/[Plasma] values)” value is given as “effectively crosses the blood brain barrier”. Further, in data set [4] (60 minutes after injection), the “degradation after injection (plasma and brain levels)” value was “rapidly degraded”.

Source of the values: patent US12551479B2, “Acyl-protein thioesterase inhibitor for the treatment and/or prevention of Huntington's disease” (UNIVERSITÉ GRENOBLE ALPES, priority 2019, dated 2026).
